From patent US8263637B2, “Methods for treatment of multiple myeloma using cyclopropane carboxylic acid {2-[(is)-1-(3-ethoxy-4-methoxy-phenyl)-2-methanesulfonyl-ethyl]-3-oxo-2,3-dihydro-1 h-isoindol-4-yl}-amide” (Celgene Corporation, priority 2002, dated 2012) come the findings set out here.

In one data set the test system is TNF-α production. The data set is described as follows: Inhibition of TNF-α production following LPS-stimulation of human PBMC and human whole blood. Format: cell-based. Conditions: in vitro studies; relative to thalidomide. An excerpt: In a specific embodiment, the pharmacological properties of 3-(3,4-dimethoxy-phenyl)-3-(1-oxo-1,3-dihydro-isoindol-2-yl)-propionamide are characterized in in vitro studies. Studies examine the effects of the compound on the production of various cytokines. Inhibition of TNF-α production following LPS-stimulation of human PBMC and human whole blood by the compound is investigated in vitro. […] The pharmacological effects of 3-(3,4-dimethoxy-phenyl)-3-(1-oxo-1,3-dihydro-isoindol-2-yl)-propionamide may derive from its action as an inhibitor of the generation of inflammatory cytokines.

A short description of data set [1]: Cardiovascular and respiratory function in anesthetized dogs. The class given is in vivo, Beagle dogs. The protocol:
The effects of 3-(3,4-dimethoxy-phenyl)-3-(1-oxo-1,3-dihydro-isoindol-2-yl)-propionamide on cardiovascular and respiratory function are investigated in anesthetized dogs. Two groups of Beagle dogs (2/sex/group) are used. One group receives three doses of vehicle only and the other receives three ascending doses of the compound (200, 400, and 800 mg/kg). In all cases, doses of the compound or vehicle are successively administered via infusion through the jugular vein separated by intervals of at least 30 minutes.
The cardiovascular and respiratory changes induced by 3-(3,4-diethoxy-phenyl)-3-(1-oxo-1,3-dihydro-isoindol-2-yl)-propionamide are minimal at all doses when compared to the vehicle control group.

In the case of `COc1ccc(C(CC(N)=O)N2Cc3ccccc3C2=O)cc1OC` (stereo not drawn) [3-(3,4-dimethoxy-phenyl)-3-(1-oxo-1,3-dihydro-isoindol-2-yl)-propionamide], the “pharmacological activity profile, times more potent than thalidomide” value in the data set on TNF-α production was “five to fifty”. The “cardiovascular and respiratory changes compared to the vehicle control group” value in data set [1] (all doses (200, 400, and 800 mg/kg), infusion through the jugular vein) is on record as “minimal”. For the same molecule, the “deviations in femoral blood flow, respiratory parameters, and Qtc interval” value in data set [1] (common to both the control and treated groups) was “not considered treatment-related”. Besides, the “arterial blood pressure effect at higher doses” value in data set [1] (higher doses) is “not seen”. Moreover, the “duration of the arterial blood pressure effect” value in data set [1] (low dose) was “approximately 15 minutes”. Further, in data set [1] (low dose, statistically significant), the “arterial blood pressure, difference between vehicle and treatment groups” value is “small increase”.
